The results in this text go back to patent US10155948B2, “Pharmaceutical composition for preventing or treating diabetic complications and screening method for preventive or therapeutic agent for diabetic complications” (KANGWON NATIONAL UNIVERSITY UNIVERSITY-INDUSTRY COOPERATION …, priority 2016, dated 2018).

The experiment deals with T1, TGase2 (Mus musculus, UniProt P21981).
T1 construct: from tissue; host or cells: retina of streptozotocin-diabetic C57BL/6 mice
T1 sequence (P21981 1-686): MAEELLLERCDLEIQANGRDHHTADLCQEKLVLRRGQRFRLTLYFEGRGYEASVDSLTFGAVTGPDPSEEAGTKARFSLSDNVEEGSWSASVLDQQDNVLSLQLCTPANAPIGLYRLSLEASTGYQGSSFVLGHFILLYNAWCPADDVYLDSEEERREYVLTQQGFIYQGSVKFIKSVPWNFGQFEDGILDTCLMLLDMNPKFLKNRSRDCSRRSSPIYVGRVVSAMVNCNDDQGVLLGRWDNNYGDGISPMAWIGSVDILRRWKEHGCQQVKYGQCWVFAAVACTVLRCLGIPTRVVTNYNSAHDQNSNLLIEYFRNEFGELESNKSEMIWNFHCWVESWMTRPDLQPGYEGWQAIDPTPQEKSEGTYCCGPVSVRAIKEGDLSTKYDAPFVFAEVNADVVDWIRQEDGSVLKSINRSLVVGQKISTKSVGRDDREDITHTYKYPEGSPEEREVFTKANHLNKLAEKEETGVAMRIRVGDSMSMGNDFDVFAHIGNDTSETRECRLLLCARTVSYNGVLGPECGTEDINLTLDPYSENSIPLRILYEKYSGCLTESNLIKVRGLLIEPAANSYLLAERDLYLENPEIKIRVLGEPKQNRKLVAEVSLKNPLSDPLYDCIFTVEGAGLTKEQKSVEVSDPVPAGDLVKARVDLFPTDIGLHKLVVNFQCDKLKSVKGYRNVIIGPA
The experiment can be described thus: In-vivo TGase activity in retina of streptozotocin-diabetic mice. Conditions: for increase of TGase activity in retinas of diabetic mice: intravitreal injection, 0.5 mM dopamine, 500 mM cysteamine; for hyperglycemia-induced TGase2 activation in diabetic retina (in-vivo TGase activity): diabetic mice, intravitreal 2 μl: 50 mM cystamine, 20 mM MDC, 1 μM C-peptide, 2 μM Trolox, 500 mM NAC, after 24 hrs, n=8. Here is the method: Two weeks after streptozotocin injection, diabetic mice were intravitreally injected with 2 μl of TGase inhibitors (50 mM cystamine or 20 mM MDC), 1 μM C-peptide (American Peptide Company, Sunnyvale, Calif.), ROS scavengers (2 μM Trolox or 500 mM NAC), or 65 μM mouse TG2-specific siRNA (Dharmacon, Lafayette, Colo.) into one eye and an equal volume of PBS or mouse control siRNA (Dharmacon, Lafayette, Colo.) into the contralateral eye. Non-diabetic mice were also intravitreally injected with 2 μl of PBS or mouse control siRNA into the eyes. After 24 hrs for inhibitors or C-peptide or 48 hrs for mouse TGase2 siRNA, mice were subjected to measurement of in-vivo TGase activity and vascular leakage from the retina.
In vivo Tgase transamidating activity was determined in mouse retina using confocal microscopy (FIG. 5A). 24 hrs after intravitreal injection of TGase2 inhibitors and C-peptide or 48 h after the injection of mouse TGase2-specific siRNA, mice were deeply anaesthetized using 2.5% avertin and 48 μl of 100 mM BAPA was injected into the left ventricle. BAPA was allowed to circulate for 10 min and mice were sacrificed by cervical dislocation. Eyes were then enucleated and immediately fixed with 4% paraformaldehyde for 45 min. Retinas were dissected in the Maltese cross-configuration and permeabilized with 0.2% Triton X-100 in PBS for 30 min at RT. After incubation with the blocking solution for 30 min, retinas were treated with FITC-conjugated streptavidin (1:200, v/v) in the blocking solution for 1 hr at RT. The superficial vessels of stained retinas (n=8 per group) were observed using confocal microscopy and fluorescence intensities were analyzed using Fluoview software (FV-300). In-vivo TGase activities were quantitatively determined using fluorescence intensities in the retinas of normal and diabetic mice.
Six-week-old male C57BL/6 mice were obtained from KOATECH (Pyeongtaek, Korea). TGase2^−/− mice (C57BL/6) were prepared by disrupting exons 5 and 6 of TGase2 by homologous recombination, as previously described. Diabetic mice were generated by a single intraperitoneal injection of streptozotocin (150 mg/kg body weight, Sigma) freshly prepared in 100 mM citrate buffer (pH 4.5) as previously described. Mice with non-fasting blood glucose levels greater than 19 mM, polyuria and glucosuria were considered diabetic. Experiments were performed in strict accordance with the guidelines of the Institutional Animal Care and Use Ethics Committee of Kangwon National University.
To validate the in-vitro findings, the present inventors further investigated the role of TGase2 in hyperglycemia-induced vascular leakage in the retina of diabetic mice. For this study, the present inventors designed an in-vivo TGase activity assay using confocal microscopy in mouse retina (FIG. 5A). In this assay, BAPA, which is a TGase2 pseudo substrate, was systemically delivered into the blood circulatory system by injection into the left ventricles of mice, and biotinylated proteins in the retinas were probed with FITC-conjugated streptavidin.
(A) A schematic diagram for determining TGase2 activity in mouse retina. (B,C) Streptozotocin-induced diabetic mice were intravitreally injected with 2 μl cystamine (diabetic+Cys), MDC (diabetic+MDC), C-peptide (diabetic+C-pep), Trolox (diabetic+Trolox) or NAC (diabetic+NAC) into one eye and an equal volume of PBS into the contralateral eye (diabetic). Non-diabetic mice were also intravitreally injected with 2 μl PBS into both eyes (normal). TGase2 activities in retinas were visualized by confocal microscopy and quantitatively determined as described in Research Design and Methods (n=8 per group). (B) Representative TGase activity images in the retinas. […] Scale bar, […]. (C) In-vivo TGase activities were quantified by measuring the fluorescence intensity in retinas (***p<0.001). […]

`NCCc1ccc(O)c(O)c1` [dopamine]: the “increase of TGase activity in retinas of diabetic mice” value was “inhibited”.

Regarding `Cc1c(C)c2c(c(C)c1O)CCC(C)(C(=O)O)O2` (centres unmarked) [Trolox], the “hyperglycemia-induced TGase2 activation in diabetic retina (in-vivo TGase activity)” value (from here on “hyperglycemia-induced TGase2 activation”) is listed as “prevented”.

For `NCCSSCCN` [cystamine], the “hyperglycemia-induced TGase2 activation” value is “suppressed”.

Turning to `CN(C)c1cccc2c(S(=O)(=O)NCCCCCN)cccc12` [MDC, monodansylcadaverine], the “hyperglycemia-induced TGase2 activation” value is “suppressed”.

On to `NCCS` [cysteamine], for which the “increase of TGase activity in retinas of diabetic mice” value is “inhibited”.
